Results published in ChEMBL document CHEMBL3885881, “DrugMatrix”.

Species: Rattus norvegicus
Test: DrugMatrix - Regimen: Daily Repeat
Type: toxicity, organism-based, Sprague-Dawley
Design: regimen Daily Repeat, gender Male, age 6-8 weeks
Conditions: in vivo, ip, 0 mg/kg, route intraperitoneal, dose level Control, […]; for ABSOLUTE BASOPHIL / ABSOLUTE EOSINOPHIL / ABSOLUTE LYMPHOCYTE / ABSOLUTE MONOCYTE / ABSOLUTE SEGMENTED NEUTROPHIL / BASOPHIL / EOSINOPHIL / ERYTHROCYTE COUNT / HEMATOCRIT / HEMOGLOBIN / LEUKOCYTE COUNT / LYMPHOCYTE / MEAN CORPUSCULAR HEMOGLOBIN / MEAN CORPUSCULAR HEMOGLOBIN CONCENTRATION / MEAN CORPUSCULAR VOLUME / MONOCYTE / NEUTROPHIL / NUCLEATED RED BLOOD CELLS / PLATELET COUNT: tissue Blood; for ALANINE AMINOTRANSFERASE / ALBUMIN / ALKALINE PHOSPHATASE / ASPARTATE AMINOTRANSFERASE / BLOOD UREA NITROGEN / CARBON DIOXIDE / CHLORIDE / CHOLESTEROL / CREATININE / GLUCOSE / LACTATE DEHYDROGENASE / LIPASE / PHOSPHORUS / POTASSIUM / SODIUM / TOTAL BILIRUBIN / TOTAL PROTEIN / URIC ACID: tissue Plasma

SMILES: ClC(Cl)=C(Cl)C(Cl)=C(Cl)Cl [HEXACHLOROBUTADIENE]
- ABSOLUTE BASOPHIL (72 h, time 3 day): 0 CELLS/uL
- ABSOLUTE EOSINOPHIL (72 h, time 3 day): 135.5 CELLS/uL
- ABSOLUTE LYMPHOCYTE (72 h, time 3 day): 9030.67 CELLS/uL
- ABSOLUTE MONOCYTE (72 h, time 3 day): 286.5 CELLS/uL
- ABSOLUTE SEGMENTED NEUTROPHIL (72 h, time 3 day): 1330.67 CELLS/uL
- BASOPHIL (72 h, time 3 day): 0%
- EOSINOPHIL (72 h, time 3 day): 1.17%
- ERYTHROCYTE COUNT (72 h, time 3 day): 5.54 x10E6/uL
- HEMATOCRIT (72 h, time 3 day): 35.2%
- HEMOGLOBIN (72 h, time 3 day): 12.65 G/DL
- LEUKOCYTE COUNT (72 h, time 3 day): 10.78 x10E3/uL
- LYMPHOCYTE (72 h, time 3 day): 83.83%
- MEAN CORPUSCULAR HEMOGLOBIN (72 h, time 3 day): 22.87 pg
- MEAN CORPUSCULAR HEMOGLOBIN CONCENTRATION (72 h, time 3 day): 35.98 G/DL
- MEAN CORPUSCULAR VOLUME (72 h, time 3 day): 63.7 fL
- MONOCYTE (72 h, time 3 day): 2.5%
- NEUTROPHIL (72 h, time 3 day): 12.5%
- NUCLEATED RED BLOOD CELLS (72 h, time 3 day): 0 /100WBC
- PLATELET COUNT (72 h, time 3 day): 853.5 x10E3/uL
- ALANINE AMINOTRANSFERASE (72 h, time 3 day): 45.83 u/L
- ALBUMIN (72 h, time 3 day): 4.22 G/DL
- ALKALINE PHOSPHATASE (72 h, time 3 day): 344.5 u/L
- ASPARTATE AMINOTRANSFERASE (72 h, time 3 day): 85.33 u/L
- BLOOD UREA NITROGEN (72 h, time 3 day): 16.17 mg/dL
- CARBON DIOXIDE (72 h, time 3 day): 33.33 mmol/L
- CHLORIDE (72 h, time 3 day): 101.33 MEQ/L
- CHOLESTEROL (72 h, time 3 day): 73.33 mg/dL
- CREATININE (72 h, time 3 day): 0.19 mg/dL
- GLUCOSE (72 h, time 3 day): 157.67 mg/dL
- LACTATE DEHYDROGENASE (72 h, time 3 day): 160.33 u/L
- LIPASE (72 h, time 3 day): 9.83 u/L
- PHOSPHORUS (72 h, time 3 day): 11.4 mg/dL
- POTASSIUM (72 h, time 3 day): 6.1 MEQ/L
- SODIUM (72 h, time 3 day): 146.25 MEQ/L
- TOTAL BILIRUBIN (72 h, time 3 day): 0.17 mg/dL
- TOTAL PROTEIN (72 h, time 3 day): 6.3 G/DL
- URIC ACID (72 h, time 3 day): 1.28 mg/dL
- ABSOLUTE BASOPHIL (120 h, time 5 day): 0 CELLS/uL
- ABSOLUTE EOSINOPHIL (120 h, time 5 day): 134 CELLS/uL
- ABSOLUTE LYMPHOCYTE (120 h, time 5 day): 9272.17 CELLS/uL
- ABSOLUTE MONOCYTE (120 h, time 5 day): 286 CELLS/uL
- ABSOLUTE SEGMENTED NEUTROPHIL (120 h, time 5 day): 1357.83 CELLS/uL
- BASOPHIL (120 h, time 5 day): 0%
- EOSINOPHIL (120 h, time 5 day): 1.17%
- ERYTHROCYTE COUNT (120 h, time 5 day): 5.83 x10E6/uL
- HEMATOCRIT (120 h, time 5 day): 36.17%
- HEMOGLOBIN (120 h, time 5 day): 13.1 G/DL
- LEUKOCYTE COUNT (120 h, time 5 day): 11.05 x10E3/uL
- LYMPHOCYTE (120 h, time 5 day): 83.83%
- MEAN CORPUSCULAR HEMOGLOBIN (120 h, time 5 day): 22.5 pg
- MEAN CORPUSCULAR HEMOGLOBIN CONCENTRATION (120 h, time 5 day): 36.25 G/DL
- MEAN CORPUSCULAR VOLUME (120 h, time 5 day): 62 fL
- MONOCYTE (120 h, time 5 day): 2.67%
- NEUTROPHIL (120 h, time 5 day): 12.33%
- NUCLEATED RED BLOOD CELLS (120 h, time 5 day): 0 /100WBC
- PLATELET COUNT (120 h, time 5 day): 806.67 x10E3/uL
- ALANINE AMINOTRANSFERASE (120 h, time 5 day): 50.83 u/L
- ALBUMIN (120 h, time 5 day): 4.13 G/DL
- ALKALINE PHOSPHATASE (120 h, time 5 day): 358.17 u/L
- ASPARTATE AMINOTRANSFERASE (120 h, time 5 day): 148.83 u/L
- BLOOD UREA NITROGEN (120 h, time 5 day): 13.83 mg/dL
- CARBON DIOXIDE (120 h, time 5 day): 35.83 mmol/L
- CHLORIDE (120 h, time 5 day): 99.33 MEQ/L
- CHOLESTEROL (120 h, time 5 day): 80.5 mg/dL
- CREATININE (120 h, time 5 day): 0.19 mg/dL
- GLUCOSE (120 h, time 5 day): 156.33 mg/dL
- LACTATE DEHYDROGENASE (120 h, time 5 day): 238.17 u/L
- LIPASE (120 h, time 5 day): 9.17 u/L
- PHOSPHORUS (120 h, time 5 day): 12.53 mg/dL
- POTASSIUM (120 h, time 5 day): 6.34 MEQ/L
- SODIUM (120 h, time 5 day): 145.15 MEQ/L
- TOTAL BILIRUBIN (120 h, time 5 day): 0.18 mg/dL
- TOTAL PROTEIN (120 h, time 5 day): 6.07 G/DL
- URIC ACID (120 h, time 5 day): 1.3 mg/dL
- ABSOLUTE BASOPHIL (time 14 day): 0 CELLS/uL
- ABSOLUTE EOSINOPHIL (time 14 day): 56.5 CELLS/uL
- ABSOLUTE LYMPHOCYTE (time 14 day): 12701 CELLS/uL
- ABSOLUTE MONOCYTE (time 14 day): 330.33 CELLS/uL
- ABSOLUTE SEGMENTED NEUTROPHIL (time 14 day): 2428.83 CELLS/uL
- BASOPHIL (time 14 day): 0%
- EOSINOPHIL (time 14 day): 0.33%
- ERYTHROCYTE COUNT (time 14 day): 6.18 x10E6/uL
- HEMATOCRIT (time 14 day): 36.42%
- HEMOGLOBIN (time 14 day): 13.22 G/DL
- LEUKOCYTE COUNT (time 14 day): 15.52 x10E3/uL
- LYMPHOCYTE (time 14 day): 82.5%
- MEAN CORPUSCULAR HEMOGLOBIN (time 14 day): 21.38 pg
- MEAN CORPUSCULAR HEMOGLOBIN CONCENTRATION (time 14 day): 36.32 G/DL
- MEAN CORPUSCULAR VOLUME (time 14 day): 58.92 fL
- MONOCYTE (time 14 day): 2.17%
- NEUTROPHIL (time 14 day): 15%
- NUCLEATED RED BLOOD CELLS (time 14 day): 0 /100WBC
- PLATELET COUNT (time 14 day): 999 x10E3/uL
- ALANINE AMINOTRANSFERASE (time 14 day): 39.17 u/L
- ALBUMIN (time 14 day): 4.05 G/DL
- ALKALINE PHOSPHATASE (time 14 day): 275.17 u/L
- ASPARTATE AMINOTRANSFERASE (time 14 day): 84.5 u/L
- BLOOD UREA NITROGEN (time 14 day): 12 mg/dL
- CARBON DIOXIDE (time 14 day): 29.5 mmol/L
- CHLORIDE (time 14 day): 101 MEQ/L
- CHOLESTEROL (time 14 day): 73.83 mg/dL
- CREATININE (time 14 day): 0.19 mg/dL
- GLUCOSE (time 14 day): 146.5 mg/dL
- LACTATE DEHYDROGENASE (time 14 day): 285.67 u/L
- LIPASE (time 14 day): 9 u/L
- PHOSPHORUS (time 14 day): 11.67 mg/dL
- POTASSIUM (time 14 day): 6.82 MEQ/L
- SODIUM (time 14 day): 143.57 MEQ/L
- TOTAL BILIRUBIN (time 14 day): 0.13 mg/dL
- TOTAL PROTEIN (time 14 day): 6.23 G/DL
- URIC ACID (time 14 day): 1.75 mg/dL
